The source of these data is patent publication US8383139B2 (Bayer CropScience AG, priority 2008, dated 2013).

A short description of the data set: log P by HPLC on reversed-phase columns (C 18), EEC Directive 79/831 Annex V.A8. It is filed as physicochemical.
The mark [1] stands for this setting: [a] HPLC, acid region pH 2.3, 0.1% aqueous phosphoric acid and acetonitrile.
Where [2] appears, read: [b] LC-MS, acid region pH 2.7, 0.1% aqueous formic acid and acetonitrile.

Consider `COc1ccc(Cc2nsc(Oc3cc(C)c(N=CN4CCCCC4)cc3C)n2)cc1` [Example 76], for which the log p under setting [1] was 1.9^[a].

For `Cc1cc(Oc2nc(Cc3c(F)cccc3Cl)ns2)c(C)cc1N=CN1CCCCC1` [Example 77], the log p under setting [1] was 2.12^[a].

On to `CCN(C)C=Nc1cc(C)c(Oc2nc(Cc3cccc(F)c3)ns2)cc1C` [Example 78], for which, under setting [1], the log p was 1.87^[a].

Take `Cc1cc(Oc2nc(Cc3ccc(C(F)(F)F)cc3)ns2)c(C)cc1N=CN1CCCCC1` [Example 79]: under setting [1], the log p was 2.66^[a].

For the compound `CCN(C)C=Nc1cc(C)c(Oc2nc(Cc3ccc(Oc4ccccc4)cc3)ns2)cc1C` [Example 80], under setting [1], the log p is 2.72^[a].

For `Cc1cc(Oc2nc(Cc3cccc(F)c3)ns2)c(C)cc1N=CN1CCCCC1` [Example 81], under setting [1], the log p is 2.25^[a].

On to `Cc1cc(Oc2nc(Cc3ccc(C#N)cc3)ns2)c(C)cc1N=CN1CCCCC1` [Example 82], for which the log p under setting [1] is 2.06^[a].

For `Cc1ccc(Br)cc1Cc1nsc(Oc2cc(C)c(N=CN3CCCCC3)cc2C)n1` [Example 83], under setting [1], the log p is 2.79^[a].

Take `Cc1cc(Oc2nc(Cc3cc(F)ccc3F)ns2)c(C)cc1N=CN1CCCCC1` [Example 84]: the log p under setting [1] is 2.4^[a].

`Cc1cc(Oc2nc(Cc3ccc(Oc4ccccc4)cc3)ns2)c(C)cc1N=CN1CCCCC1` [Example 85]: the log p under setting [1] is 2.85^[a].

Turning to `Cc1cc(Oc2nc(Cc3c(Cl)cccc3Cl)ns2)c(C)cc1N=CN1CCCCC1` [Example 86], under setting [1], the log p is 2.6^[a].

As to `COc1cccc(Cc2nsc(Oc3cc(C)c(N=CN4CCCCC4)cc3C)n2)c1` [Example 87], the log p under setting [1] was 2.17^[a].

For the compound `Cc1cc(Oc2nc(Cc3ccc(SC(F)(F)F)cc3)ns2)c(C)cc1N=CN1CCCCC1` [Example 88], the log p under setting [1] was 2.67^[a].

`CCOc1ccc(Cc2nsc(Oc3cc(C)c(N=CN(C)CC)cc3C)n2)cc1` [Example 89]: the log p under setting [1] was 2.06^[a].

Turning to `CCOc1ccc(Cc2nsc(Oc3cc(C)c(N=CN4CCCCC4)cc3C)n2)cc1` [Example 90], under setting [1], the log p was 2.23^[a].

In the case of `Cc1cc(Oc2nc(Cc3ccc(F)c(C(F)(F)F)c3)ns2)c(C)cc1N=CN1CCCCC1` [Example 91], under setting [1], the log p was 2.44^[a].

Consider `Cc1cc(Oc2nc(Cc3ccc4ccccc4c3)ns2)c(C)cc1N=CN1CCCCC1` [Example 92], for which, under setting [1], the log p was 2.43^[a].

On to `Cc1cc(Oc2nc(Cc3cccc(Cl)c3Cl)ns2)c(C)cc1N=CN1CCCCC1` [Example 93], for which the log p under setting [1] is 2.38^[a].

Turning to `CCN(C)C=Nc1cc(C)c(Oc2nc(Cc3ccc(F)c(C(F)(F)F)c3)ns2)cc1C` [Example 94], under setting [1], the log p was 2.24^[a].

Turning to `CCN(C)C=Nc1cc(Cl)c(Oc2nc(Cc3ccc(SC(F)(F)F)cc3)ns2)cc1C` [Example 95], the log p under setting [1] was 2.51^[a].

Consider `CCN(C)C=Nc1cc(C)c(Oc2nc(Cc3cccc(Cl)c3Cl)ns2)cc1C` [Example 96], for which, under setting [1], the log p is 2.21^[a].

As to `CCN(C)C=Nc1cc(C)c(Oc2nc(Cc3ccc4ccccc4c3)ns2)cc1C` [Example 97], the log p under setting [1] was 2.22^[a].

Regarding `Cc1cc(Oc2nc(Cc3ccccc3Br)ns2)c(C)cc1N=CN1CCCCC1` [Example 98], the log p under setting [1] is 2.36^[a].

As to `CCN(C)C=Nc1cc(C)c(Oc2nc(Cc3ccccc3F)ns2)cc1C` [Example 99], the log p under setting [1] was 2.12^[a].

Consider `CCN(C)C=Nc1cc(C)c(Oc2nc(Cc3ccccc3Br)ns2)cc1C` [Example 100], for which the log p under setting [1] is 2.32^[a].

On to `CCOCC(NC=Nc1cc(C)c(Oc2nc(Cc3ccc(OC(F)(F)F)cc3)ns2)cc1C)C1CC1` (centres unmarked) [Example 101], for which the log p under setting [1] was 2.85^[a].

As to `CCN(C)C=Nc1cc(C)c(Oc2nc(Cc3ccc(SC(F)(F)F)cc3)ns2)cc1C` [Example 102], the log p under setting [1] was 2.78^[a].

As to `Cc1ccc(Cc2nsc(Oc3cc(C)c(N=CN4CCCCC4)cc3C)n2)c([N+](=O)[O-])c1` [Example 103], the log p under setting [1] was 2.44^[a].

As to `Cc1cc(Oc2nc(Cc3ccccc3F)ns2)c(C)cc1N=CN1CCCCC1` [Example 104], the log p under setting [1] is 2.27^[a].

As for `CCN(C)C=Nc1cc(C)c(Oc2nc(Cc3c(F)cc(F)cc3F)ns2)cc1C` [Example 105], the log p under setting [1] is 2.1^[a].

`CCN(C)C=Nc1cc(C)c(Oc2nc(Cc3ccccc3[N+](=O)[O-])ns2)cc1C` [Example 106]: the log p under setting [1] is 2.07^[a].

Take `Cc1cc(Oc2nc(Cc3ccc4ccccc4c3)ns2)c(C)cc1N=CN1CCCCC1` [Example 107]: the log p under setting [1] is 2.37^[a].

For `CCN(C)C=Nc1cc(C(C)C)c(Oc2nc(Cc3ccc(Cl)cc3Cl)ns2)cc1C` [Example 108], the log p under setting [1] was 2.93^[a].

With `CCN(C)C=Nc1cc(C(C)C)c(Oc2nc(Cc3ccc(Cl)cc3)ns2)cc1C` [Example 109], under setting [1], the log p is 2.71^[a].

Turning to `CCN(C)C=Nc1cc(C(C)C)c(Oc2nc(Cc3ccc(F)cc3)ns2)cc1C` [Example 110], the log p under setting [1] was 2.41^[a].

With `CCN(C)C=Nc1cc(C(C)C)c(Oc2nc(Cc3ccc(Br)cc3)ns2)cc1C` [Example 111], the log p under setting [1] was 2.75^[a].

For the compound `CCN(C)C=Nc1cc(C)c(Oc2nc(Cc3ccc4ccccc4c3)ns2)cc1C` [Example 112], under setting [1], the log p was 2.24^[a].

Consider `CCN(C)C=Nc1cc(C)c(Oc2nc(Cc3cccc(C)c3)ns2)cc1C` [Example 113], for which the log p under setting [1] is 2.28^[a].

Take `Cc1cccc(Cc2nsc(Oc3cc(C)c(N=CN4CCCCC4)cc3C)n2)c1` [Example 114]: under setting [1], the log p is 2.44^[a].

Consider `Cc1cc(F)c(Br)cc1Cc1nsc(Oc2cc(C)c(N=CN3CCCCC3)cc2C)n1` [Example 115], for which the log p under setting [1] was 2.76^[a].

Regarding `CCN(C)C=Nc1cc(C)c(Oc2nc(Cc3cc(Br)c(F)cc3C)ns2)cc1C` [Example 116], the log p under setting [1] is 2.57^[a].

As for `Cc1cc(Oc2nc(Cc3c(F)cc(F)cc3F)ns2)c(C)cc1N=CN1CCCCC1` [Example 117], the log p under setting [1] was 2.33^[a].

For the compound `CCN(C)C=Nc1cc(Cl)c(Oc2nc(Cc3ccc(Cl)cc3Cl)ns2)cc1C` [Example 118], the log p under setting [2] is 2.42^[b].

As to `CCN(C)C=Nc1cc(Cl)c(Oc2nc(Cc3ccc(Br)cc3)ns2)cc1C` [Example 119], the log p under setting [2] is 2.26^[b].

On to `CCN(C)C=Nc1cc(C)c(Oc2nc(Cc3ccc(C)cc3)ns2)cc1C` [Example 120], for which, under setting [2], the log p is 2.12^[b].

In the case of `Cc1cc(Oc2nc(Cc3ccccc3[N+](=O)[O-])ns2)c(C)cc1N=CN1CCCCC1` [Example 121], the log p under setting [1] is 2.16^[a].

For `Cc1ccc(Cc2nsc(Oc3cc(C)c(N=CN4CCCCC4)cc3C)n2)cc1` [Example 122], under setting [1], the log p was 2.49^[a].

Regarding `Cc1cc(Oc2nc(Cc3ccc(Cl)cc3)ns2)c(C)cc1N=CN(C)C1CC1` [Example 123], the log p under setting [2] was 2.06^[b].

Consider `CCOCC(C1CC1)N(C)C=Nc1cc(C)c(Oc2nc(Cc3ccc(Cl)cc3)ns2)cc1C` (centres unmarked) [Example 124], for which, under setting [2], the log p was 2.56^[b].

Turning to `Cc1cc(Oc2nc(Cc3ccc(SC(F)(F)F)cc3)ns2)c(C)cc1N=CN(C)CC(F)F` [Example 125], under setting [2], the log p is 2.68^[b].

As to `Cc1cc(Oc2nc(Cc3ccc(SC(F)(F)F)cc3)ns2)c(C)cc1N=CN(C)C1CC1` [Example 126], the log p under setting [2] was 1.83^[b].

For `Cc1cc(Oc2nc(Cc3ccc(F)cc3)ns2)c(C)cc1N=CN(C)C1CC1` [Example 127], the log p under setting [2] was 1.83^[b].

Consider `CCOCC(C1CC1)N(C)C=Nc1cc(C)c(Oc2nc(Cc3ccc(SC(F)(F)F)cc3)ns2)cc1C` (centres unmarked) [Example 128], for which the log p under setting [2] is 2.92^[b].

For the compound `Cc1cc(Oc2nc(Cc3ccc(C(F)(F)F)cc3)ns2)c(C)cc1N=CN(C)CC(F)F` [Example 129], the log p under setting [2] was 2.38^[b].

As to `Cc1cc(Oc2nc(Cc3ccc(C(F)(F)F)cc3)ns2)c(C)cc1N=CN(C)C1CC1` [Example 130], the log p under setting [2] is 2.28^[b].

For the compound `Cc1cc(Oc2nc(Cc3ccc(F)cc3)ns2)c(C)cc1N=CN(C)CC(F)F` [Example 131], the log p under setting [2] is 1.99^[b].

Turning to `CCOCC(C1CC1)N(C)C=Nc1cc(C)c(Oc2nc(Cc3ccc(F)cc3)ns2)cc1C` (centres unmarked) [Example 132], the log p under setting [2] was 2.26^[b].

As for `CCOCC(C1CC1)N(C)C=Nc1cc(C)c(Oc2nc(Cc3ccc(C(F)(F)F)cc3)ns2)cc1C` (centres unmarked) [Example 133], the log p under setting [2] was 2.43^[b].

For the compound `CCOCC(C1CC1)N(C)C=Nc1cc(C)c(Oc2nc(Cc3ccc(OC)cc3)ns2)cc1C` (centres unmarked) [Example 134], under setting [2], the log p is 2.36^[b].

Regarding `COc1ccc(Cc2nsc(Oc3cc(C)c(N=CN(C)C4CC4)cc3C)n2)cc1` [Example 135], under setting [2], the log p was 1.92^[b].

With `COc1ccc(Cc2nsc(Oc3cc(C)c(N=CN(C)CC(F)F)cc3C)n2)cc1` [Example 136], under setting [2], the log p is 1.87^[b].

Regarding `Cc1ccc(Cc2nsc(Oc3cc(C)c(N=CN(C)CC(F)F)cc3C)n2)cc1` [Example 137], under setting [2], the log p is 2.25^[b].

Regarding `Cc1ccc(Cc2nsc(Oc3cc(C)c(N=CN(C)C4CC4)cc3C)n2)cc1` [Example 138], the log p under setting [2] is 2.19^[b].

Take `CCOCC(NC=Nc1cc(C)c(Oc2nc(Cc3ccc(Cl)cc3)ns2)cc1C)C1CC1` (centres unmarked) [Example 139]: the log p under setting [1] was 2.7^[a].

For the compound `CCOCC(C1CC1)N(C)C=Nc1cc(C)c(Oc2nc(Cc3ccc(C)cc3)ns2)cc1C` (centres unmarked) [Example 140], the log p under setting [2] is 2.4^[b].

Consider `Cc1cc(Oc2nc(Cc3ccc(OC(F)(F)F)cc3)ns2)c(C)cc1N=CN(C)C1CC1` [Example 141], for which, under setting [2], the log p was 2.2^[b].

With `Cc1cc(Oc2nc(Cc3ccc(OC(F)(F)F)cc3)ns2)c(C)cc1N=CN(C)CC(F)F` [Example 142], under setting [2], the log p was 2.46^[b].

Turning to `CCOCC(C1CC1)N(C)C=Nc1cc(C)c(Oc2nc(Cc3ccc(OC(F)(F)F)cc3)ns2)cc1C` (centres unmarked) [Example 143], the log p under setting [2] was 2.75^[b].
